# Where a name gives a salt, the structure may show the parent alone.
# Key:
# Assay type in all cases: biochemical
# [1] = molecular target: T1, human CDK4/cyclin D3 (Homo sapiens, UniProt P11802); experiment: Inhibition of CDK4/cyclin D retinoblastoma kinase activity (Ki; % inhibition); conditions: apparent Ki, CDK4/cyclin D3, Rb substrate
# T1 construct: made in house; host or cells: insect cells co-infected with baculovirus vectors
# Method in brief: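 Insect-cell-expressed CDK4 with truncated cyclin D3 (1-264), 5 nM, phosphorylating His-tagged Rb fragment (386-928) with 25 μM [32/33P]ATP at pH 7.4, 30 °C, 20 min (60 min for tight binders). Filter capture, phosphorimager read; % inhibition at 30 nM compound, Ki from competitive or tight-binding fits.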
# [2] = molecular target: T2, human CDK1 (cdc2)/cyclin B (Homo sapiens, UniProt P06493); experiment: Inhibition of CDK1 (cdc2)/cyclin B histone H1 kinase activity; conditions: histone H1 substrate
# T2 construct: purchased New England Biolabs (Beverly, Mass.)
# Procedure: Cyclin-dependent kinase activity was measured by quantifying the enzyme-catalyzed, time-dependent incorporation of radioactive phosphate from [^32P]ATP or [^33P]ATP into a protein substrate. Unless noted otherwise, assays were performed in 96-well plates in a total volume of 50 μL, in the presence of 10 mM HEPES (N-[2-hydroxyethyl]piperazine-N′-[2-ethanesulfonic acid]) (pH 7.4), 10 mM MgCl2, 25 μM adenosine triphosphate (ATP), 1 mg/mL ovalbumin, 5 μg/mL leupeptin, 1 mM dithiothreitol, 10 mM β-glycerophosphate, 0.1 mM sodium vanadate, 1 mM sodium fluoride, 2.5 mM ethylene glycol-bis(β-aminoethyl ether)-N,N,N′N′-tetraacetic acid (EGTA), 2% (v/v) dimethylsulfoxide, and 0.03-0.4 μCi [^32/33P]ATP per reaction. Reactions were initiated with enzyme, incubated at 30° C., and terminated after 20 minutes by the addition of ethylenediaminetetraacetic acid (EDTA) to 250 mM. The phosphorylated substrate was then captured on a nitrocellulose or phosphocellulose membrane using a 96-well filtration manifold, and unincorporated radioactivity was removed by repeated washing with 0.85% phosphoric acid. Radioactivity was quantified by exposing the dried membranes to a phosphorimager.
# Compounds from combinatorial libraries were screened from 96-well plates for % inhibition of CDK activity at 30 nM theoretical compound concentration. Inhibition was measured relative to control wells that contained all reaction components including 2% (v/v) DMSO but no compound, after subtraction of background radioactivity measured in the absence of enzyme. Apparent Ki values of discrete compounds were measured by assaying enzyme activity in the presence of different inhibitor compound concentrations and subtracting the background radioactivity measured in the absence of enzyme. The kinetic parameters (kcat, Km for ATP) were measured for each enzyme under the usual assay conditions by determining the dependence of initial rates on ATP concentration. Inhibition data were fit to an equation for competitive inhibition using Kaleidagraph (Synergy Software), or were fit to an equation for competitive tight-binding inhibition using the software KineTic (BioKin, Ltd.).
# The complex of human CDK1 (cdc2) and cyclin B was purchased from New England Biolabs (Beverly, Mass.). Alternatively, a CDK1/glutathione-S-transferase-cyclin B1 complex was purified using glutathione affinity chromatography from insect cells that had been co-infected with the corresponding baculovirus expression vectors. The assay was executed as described above at 30° C. using 2.5 units of cdc2/cyclin B, 10 μg Histone H1 protein, and 0.1-0.3 μCi [^32/33P]ATP per assay. Phosphorylated histone substrate was captured by microfiltration on a phosphocellulose P81 membrane and quantified using a phosphorimager as described above. Ki values were measured using the described curve-fitting programs.
# [3] = molecular target: T3, phosphorylated LCK kinase (Homo sapiens, UniProt P06239, C224D/P223M); experiment: Inhibition of phosphorylated LCK tyrosine kinase activity (coupled spectrophotometric assay); conditions: read-out: P-LCK % Inhibition at 1 μM
# T3 construct: starting from amino acid 223 to the end of the protein at amino acid 509; made in house; host or cells: insect cells
# Procedure: Cloning, expression and purification of the cytosolic domain of FGFR1 tyrosine kinase (amino acids 456-766) containing three amino acid substitutions (L457V, C488A, and C584S) were conducted as previously described (Mohammadi, M., Schiessinger, J., & Hubbard, S. R. Cell, 86, (1996) 577-587). This domain was expressed in Sf9 insect cells using a baculovirus expression vector, and protein was purified using conventional techniques. The LCK tyrosine kinase was expressed in insect cells as an N-terminal deletion starting from amino acid 223 to the end of the protein at amino acid 509. The N-terminus of the protein also had two amino acid substitutions, P223M and C224D. Kinases were purified using conventional chromatographic methods.
# Tyrosine kinase activity was measured using a coupled, continuous spectrophotometric assay, in which production of phosphorylated poly(Glu,Tyr; 4:1) substrate and ADP is coupled to the pyruvate kinase-catalyzed transfer of a phosphate from phosphoenolpyruvate to ADP, with generation of pyruvate and regeneration of ATP. Pyruvate production is in turn coupled to the lactate dehydrogenase-catalyzed reduction of pyruvate to form lactate, with concomitant conversion of NADH to NAD^+. Loss of NADH is monitored by measuring absorbance at 340 nm (see e.g., Technikova-Dobrova et al., “Spectrophotometric Determination of Functional Characteristics of Protein Kinases with Coupled Enzymatic Assay,” FEBS Letters, 292 (1991), pp. 69-72). Enzyme activity was measured in the presence of 200 mM HEPES (pH 7.5), 2 mM phosphoenolpyruvate, 0.3 mM NADH, 20 mM MgCl2, 100 μM ATP, 5 mM DTT, 5.1 or 25 mM poly (Glu,Tyr) 4:1 for P-FGF or P-LCK assays, respectively, and 15 units/mL each of pyruvate kinase and lactate dehydrogenase. Phosphorylated FGF receptor kinase was present at 100 nM and phosphorylated LCK kinase was present at 50 nM. Assays were performed under initial rate conditions at 37° C., and rates were corrected for any background rate measured in the absence of enzyme. Percent inhibition was calculated relative to control enzyme assayed in the presence of 2% (v/v) DMSO.
# T1 sequence (P11802 whole entry): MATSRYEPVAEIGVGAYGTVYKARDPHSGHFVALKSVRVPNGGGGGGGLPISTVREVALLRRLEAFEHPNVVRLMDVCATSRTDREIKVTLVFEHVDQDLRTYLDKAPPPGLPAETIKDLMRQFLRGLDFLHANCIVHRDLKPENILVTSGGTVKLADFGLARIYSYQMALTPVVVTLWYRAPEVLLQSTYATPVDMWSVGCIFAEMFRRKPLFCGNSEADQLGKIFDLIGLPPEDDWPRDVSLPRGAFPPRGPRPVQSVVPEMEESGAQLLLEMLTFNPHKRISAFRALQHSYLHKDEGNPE
# T1 sequence (P30281 1-264 partner limits assumed): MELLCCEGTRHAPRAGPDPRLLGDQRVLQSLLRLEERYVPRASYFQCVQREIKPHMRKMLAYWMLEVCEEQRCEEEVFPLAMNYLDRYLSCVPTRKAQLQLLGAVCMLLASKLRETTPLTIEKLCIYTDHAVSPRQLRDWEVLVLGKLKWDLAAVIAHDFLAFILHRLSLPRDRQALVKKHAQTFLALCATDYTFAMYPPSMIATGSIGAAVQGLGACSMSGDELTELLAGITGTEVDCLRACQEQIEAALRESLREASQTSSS
# T2 sequence (P06493 whole entry): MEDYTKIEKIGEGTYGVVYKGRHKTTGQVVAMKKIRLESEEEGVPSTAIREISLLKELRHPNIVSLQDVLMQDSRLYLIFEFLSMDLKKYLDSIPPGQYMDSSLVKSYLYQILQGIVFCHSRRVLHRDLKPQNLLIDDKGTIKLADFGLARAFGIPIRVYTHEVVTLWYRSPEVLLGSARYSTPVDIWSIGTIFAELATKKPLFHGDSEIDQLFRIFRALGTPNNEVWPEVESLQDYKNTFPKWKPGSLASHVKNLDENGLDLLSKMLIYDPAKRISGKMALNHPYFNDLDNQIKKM
# T2 sequence (P14635 whole entry partner): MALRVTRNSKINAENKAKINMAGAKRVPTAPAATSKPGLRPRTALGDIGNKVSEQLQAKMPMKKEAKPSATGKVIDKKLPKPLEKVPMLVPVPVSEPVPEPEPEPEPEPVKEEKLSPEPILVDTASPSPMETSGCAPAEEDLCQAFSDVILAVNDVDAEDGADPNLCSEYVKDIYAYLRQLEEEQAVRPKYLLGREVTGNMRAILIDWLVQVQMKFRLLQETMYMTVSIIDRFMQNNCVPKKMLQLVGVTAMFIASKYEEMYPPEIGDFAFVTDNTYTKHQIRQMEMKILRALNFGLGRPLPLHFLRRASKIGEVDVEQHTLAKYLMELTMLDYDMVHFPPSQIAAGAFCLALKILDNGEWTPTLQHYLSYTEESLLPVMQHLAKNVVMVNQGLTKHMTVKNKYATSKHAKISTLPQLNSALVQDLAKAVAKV
# T3 sequence (P06239 223-509 P223M/C224D): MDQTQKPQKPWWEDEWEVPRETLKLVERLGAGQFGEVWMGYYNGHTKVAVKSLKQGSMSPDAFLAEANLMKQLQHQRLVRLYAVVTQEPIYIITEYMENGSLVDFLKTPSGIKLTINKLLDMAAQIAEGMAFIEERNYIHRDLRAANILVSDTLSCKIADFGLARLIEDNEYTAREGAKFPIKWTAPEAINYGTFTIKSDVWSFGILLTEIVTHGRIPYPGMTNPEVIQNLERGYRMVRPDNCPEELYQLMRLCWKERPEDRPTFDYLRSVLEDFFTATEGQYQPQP
SMILES,Ki [1] [nM],Ki [2] [nM],inhibition at 1 µM [3] [%]
"Nc1nc(Nc2ccc(C(=O)NCCc3ccc(O)cc3)cc2)sc1C(=O)c1c(F)cccc1F [Example A14, 4-[4-Amino-5-(2,6-difluoro-benzoyl)-thiazol-2-ylamino]-N-[2-(4-hydroxy-phenyl)-ethyl]-benzamide]",14,42,0
"Nc1nc(Nc2ccc(C(=O)NCCN3CCCCC3)cc2)sc1C(=O)c1c(F)cccc1F [Example A15, 4-[4-Amino-5-(2,6-difluoro-benzoyl)-thiazol-2-ylamino]-N-(2-piperidin-1-yl-ethyl)-benzamide]",7,68,0
"CC(CN(C)C)NC(=O)c1ccc(Nc2nc(N)c(C(=O)c3c(F)cccc3F)s2)cc1 (stereo not drawn) [Example A20, 4-[4-Amino-5-(2,6-difluoro-benzoyl)-thiazol-2-ylamino]-N-(2-dimethylamino-1RS-methyl-ethyl)-benzamide Hydrochloride Salt]",32,150,0
Nc1nc(Nc2ccc(C(=O)Nc3ccc(N4CCOCC4)cc3)cc2)sc1C(=O)c1c(F)cccc1F [Example A21],105,120,0
"CN1CCC[C@H]1CNC(=O)c1ccc(Nc2nc(N)c(C(=O)c3c(F)cccc3F)s2)cc1 [Example A31, 4-[4-Amino-5-(2,6-difluoro-benzoyl)-thiazol-2-ylamino]-N-(1-methyl-pyrrolidin-2S-yl-methyl)-benzamide Dihydrochloride]",7,82,0
